Reference: the supplement of paper PMC10307832

Assays:
Experiment in all cases: relative viability (nuclei count vs DMSO), 5 days (fraction); higher = more cells survive
Pictilisib + Linsitinib = compound: CS(=O)(=O)N1CCN(Cc2cc3nc(-c4cccc5[nH]ncc45)nc(N4CCOCC4)c3s2)CC1 [Pictilisib] + C[C@]1(O)C[C@@H](c2nc(-c3ccc4ccc(-c5ccccc5)nc4c3)c3c(N)nccn32)C1 [Linsitinib] (partner 1 µM)
Procedure, shortened: (§1)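 Cells from lung cancer lines were seeded into 1536-well plates and, one day later, dosed by pin tool. Treatments were either a single drug or a fixed dose of an anchor drug with five library-drug doses (not always all listed) in √10 steps. After 5 days, nuclei were stained in a one-step fixation (final 0.05% Triton X-100, 1% formaldehyde, 1 ug/ml Hoechst) and counted on 4× images, and relative viability is the treated-to-vehicle nuclei ratio, as the median of duplicate plates.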

Pictilisib + Pemetrexed = compound: CS(=O)(=O)N1CCN(Cc2cc3nc(-c4cccc5[nH]ncc45)nc(N4CCOCC4)c3s2)CC1 [Pictilisib] + Nc1nc2[nH]cc(CCc3ccc(C(=O)N[C@@H](CCC(=O)O)C(=O)O)cc3)c2c(=O)[nH]1 [Pemetrexed] (partner 0.2 µM)
Procedure, shortened: as §1

MK-2206 + Luminespib = compound: NC1(c2ccc(-c3nc4ccn5c(=O)[nH]nc5c4cc3-c3ccccc3)cc2)CCC1 [MK-2206] + CCNC(=O)c1noc(-c2cc(C(C)C)c(O)cc2O)c1-c1ccc(CN2CCOCC2)cc1 [Luminespib] (partner 0.01 µM)
Procedure, shortened: as §1

MK-2206 + OSI-027 = compound: NC1(c2ccc(-c3nc4ccn5c(=O)[nH]nc5c4cc3-c3ccccc3)cc2)CCC1 [MK-2206] + COc1cccc2cc(-c3nc([C@H]4CC[C@H](C(=O)O)CC4)n4ncnc(N)c34)[nH]c12 [OSI-027] (partner 0.5 µM)
Procedure, shortened: as §1

MK-2206 + Dasatinib = compound: NC1(c2ccc(-c3nc4ccn5c(=O)[nH]nc5c4cc3-c3ccccc3)cc2)CCC1 [MK-2206] + Cc1nc(Nc2ncc(C(=O)Nc3c(C)cccc3Cl)s2)cc(N2CCN(CCO)CC2)n1 [Dasatinib] (partner 0.075 µM)
Procedure, shortened: as §1

Q: What does the source list for UMC-11?
A: relative viability (Pictilisib + Linsitinib; first compound 0.02 µM): 0.973; relative viability (Pictilisib + Linsitinib; first compound 0.06325 µM): 1.03; relative viability (Pictilisib + Linsitinib; first compound 0.6325 µM): 1.07; relative viability (Pictilisib + Linsitinib; first compound 2 µM): 0.928; relative viability (Pictilisib + Pemetrexed; first compound 0.02 µM): 0.784; relative viability (Pictilisib + Pemetrexed; first compound 0.06325 µM): 0.787; relative viability (Pictilisib + Pemetrexed; first compound 0.6325 µM): 0.737; relative viability (Pictilisib + Pemetrexed; first compound 2 µM): 0.535; relative viability (MK-2206 + Luminespib; first compound 0.01 µM): 1; relative viability (MK-2206 + Luminespib; first compound 0.03162 µM): 0.944; relative viability (MK-2206 + Luminespib; first compound 0.3162 µM): 1.12; relative viability (MK-2206 + Luminespib; first compound 1 µM): 1.1; relative viability (MK-2206 + OSI-027; first compound 0.01 µM): 0.491; relative viability (MK-2206 + OSI-027; first compound 0.03162 µM): 0.567; relative viability (MK-2206 + OSI-027; first compound 0.3162 µM): 0.46; relative viability (MK-2206 + OSI-027; first compound 1 µM): 0.521; relative viability (MK-2206 + Dasatinib; first compound 0.01 µM): 0.465; relative viability (MK-2206 + Dasatinib; first compound 0.03162 µM): 0.434; relative viability (MK-2206 + Dasatinib; first compound 0.3162 µM): 0.503; relative viability (MK-2206 + Dasatinib; first compound 1 µM): 0.475
